Laboratory results as given in ChEMBL document CHEMBL3991601, “The target landscape of clinical kinase drugs” (Science, 2017).
Active and inactive are the calls of the source. For most assays here, no stated cut-off is given here; in the data, actives have a measured Kd and inactives only a lower limit.

Experiments:
[1] = target: Glycogen synthase kinase-3 alpha (Homo sapiens, UniProt P49840)
[2] = target: Ribosomal protein S6 kinase alpha-4 (Homo sapiens, UniProt O75676)
[3] = target: Platelet-derived growth factor receptor beta (Homo sapiens, UniProt P09619)
[4] = target: Rho-associated protein kinase 1 (Homo sapiens, UniProt Q13464)
[5] = target: T1, AarF domain-containing protein kinase 1 (Homo sapiens, UniProt Q86TW2)
T1 sequence (Q86TW2 whole entry): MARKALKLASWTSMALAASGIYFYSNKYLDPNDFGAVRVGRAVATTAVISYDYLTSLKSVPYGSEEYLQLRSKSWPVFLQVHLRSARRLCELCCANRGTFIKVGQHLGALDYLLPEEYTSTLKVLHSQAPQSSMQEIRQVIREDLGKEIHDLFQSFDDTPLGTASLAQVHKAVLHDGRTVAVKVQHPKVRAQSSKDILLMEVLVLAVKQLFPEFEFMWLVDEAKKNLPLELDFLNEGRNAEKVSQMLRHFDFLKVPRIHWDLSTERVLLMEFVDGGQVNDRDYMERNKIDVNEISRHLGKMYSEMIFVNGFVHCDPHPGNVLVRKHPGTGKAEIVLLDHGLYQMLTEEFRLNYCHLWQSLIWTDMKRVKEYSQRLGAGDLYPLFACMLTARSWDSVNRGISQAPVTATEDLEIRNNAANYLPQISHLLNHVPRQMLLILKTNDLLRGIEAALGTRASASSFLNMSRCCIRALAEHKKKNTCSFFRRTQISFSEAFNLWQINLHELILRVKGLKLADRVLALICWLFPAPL

Glycine--tRNA ligase = target: T2, Glycine--tRNA ligase (Homo sapiens, UniProt P41250)
T2 sequence (P41250 whole entry): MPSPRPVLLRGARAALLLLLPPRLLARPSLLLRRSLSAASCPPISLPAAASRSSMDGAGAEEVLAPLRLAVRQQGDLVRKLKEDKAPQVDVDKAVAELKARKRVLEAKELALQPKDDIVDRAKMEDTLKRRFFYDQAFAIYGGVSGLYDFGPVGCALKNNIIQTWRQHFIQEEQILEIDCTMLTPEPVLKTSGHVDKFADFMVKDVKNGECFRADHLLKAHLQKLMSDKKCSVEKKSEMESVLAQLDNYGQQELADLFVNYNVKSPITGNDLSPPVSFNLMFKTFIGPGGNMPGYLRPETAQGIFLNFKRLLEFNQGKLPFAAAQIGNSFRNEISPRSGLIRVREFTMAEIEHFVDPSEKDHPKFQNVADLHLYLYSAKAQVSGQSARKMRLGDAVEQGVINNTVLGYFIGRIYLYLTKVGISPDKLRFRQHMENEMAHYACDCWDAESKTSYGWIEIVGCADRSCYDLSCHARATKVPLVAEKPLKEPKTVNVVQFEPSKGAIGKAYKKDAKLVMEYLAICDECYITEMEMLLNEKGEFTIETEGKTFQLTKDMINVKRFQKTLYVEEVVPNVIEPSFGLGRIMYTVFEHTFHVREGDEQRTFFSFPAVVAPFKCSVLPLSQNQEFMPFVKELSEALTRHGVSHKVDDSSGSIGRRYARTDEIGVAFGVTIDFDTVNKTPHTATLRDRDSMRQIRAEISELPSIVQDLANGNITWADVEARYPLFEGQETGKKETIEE

Septin-9 = target: T3, Septin-9 (Homo sapiens, UniProt Q9UHD8)
T3 sequence (Q9UHD8 whole entry): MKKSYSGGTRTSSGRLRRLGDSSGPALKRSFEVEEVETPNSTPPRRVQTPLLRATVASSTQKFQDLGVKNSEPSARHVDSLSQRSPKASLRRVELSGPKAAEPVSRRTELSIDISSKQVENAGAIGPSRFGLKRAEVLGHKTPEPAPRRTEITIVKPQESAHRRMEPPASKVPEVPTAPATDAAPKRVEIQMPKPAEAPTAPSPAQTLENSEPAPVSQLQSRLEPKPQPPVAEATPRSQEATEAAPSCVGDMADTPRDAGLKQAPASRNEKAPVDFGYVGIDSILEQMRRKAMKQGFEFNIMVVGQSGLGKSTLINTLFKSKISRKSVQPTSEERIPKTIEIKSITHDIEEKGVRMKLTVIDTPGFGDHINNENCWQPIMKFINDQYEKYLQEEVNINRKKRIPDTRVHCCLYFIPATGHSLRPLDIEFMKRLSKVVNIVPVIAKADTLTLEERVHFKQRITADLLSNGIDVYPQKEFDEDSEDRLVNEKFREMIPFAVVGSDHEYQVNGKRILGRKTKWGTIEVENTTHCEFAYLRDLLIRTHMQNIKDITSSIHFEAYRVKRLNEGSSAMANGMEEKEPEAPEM

[6] = target: Receptor-interacting serine/threonine-protein kinase 3 (Homo sapiens, UniProt Q9Y572)

Measured: Kd

Chain of Platelet-derived growth factor receptor beta (P09619 whole entry): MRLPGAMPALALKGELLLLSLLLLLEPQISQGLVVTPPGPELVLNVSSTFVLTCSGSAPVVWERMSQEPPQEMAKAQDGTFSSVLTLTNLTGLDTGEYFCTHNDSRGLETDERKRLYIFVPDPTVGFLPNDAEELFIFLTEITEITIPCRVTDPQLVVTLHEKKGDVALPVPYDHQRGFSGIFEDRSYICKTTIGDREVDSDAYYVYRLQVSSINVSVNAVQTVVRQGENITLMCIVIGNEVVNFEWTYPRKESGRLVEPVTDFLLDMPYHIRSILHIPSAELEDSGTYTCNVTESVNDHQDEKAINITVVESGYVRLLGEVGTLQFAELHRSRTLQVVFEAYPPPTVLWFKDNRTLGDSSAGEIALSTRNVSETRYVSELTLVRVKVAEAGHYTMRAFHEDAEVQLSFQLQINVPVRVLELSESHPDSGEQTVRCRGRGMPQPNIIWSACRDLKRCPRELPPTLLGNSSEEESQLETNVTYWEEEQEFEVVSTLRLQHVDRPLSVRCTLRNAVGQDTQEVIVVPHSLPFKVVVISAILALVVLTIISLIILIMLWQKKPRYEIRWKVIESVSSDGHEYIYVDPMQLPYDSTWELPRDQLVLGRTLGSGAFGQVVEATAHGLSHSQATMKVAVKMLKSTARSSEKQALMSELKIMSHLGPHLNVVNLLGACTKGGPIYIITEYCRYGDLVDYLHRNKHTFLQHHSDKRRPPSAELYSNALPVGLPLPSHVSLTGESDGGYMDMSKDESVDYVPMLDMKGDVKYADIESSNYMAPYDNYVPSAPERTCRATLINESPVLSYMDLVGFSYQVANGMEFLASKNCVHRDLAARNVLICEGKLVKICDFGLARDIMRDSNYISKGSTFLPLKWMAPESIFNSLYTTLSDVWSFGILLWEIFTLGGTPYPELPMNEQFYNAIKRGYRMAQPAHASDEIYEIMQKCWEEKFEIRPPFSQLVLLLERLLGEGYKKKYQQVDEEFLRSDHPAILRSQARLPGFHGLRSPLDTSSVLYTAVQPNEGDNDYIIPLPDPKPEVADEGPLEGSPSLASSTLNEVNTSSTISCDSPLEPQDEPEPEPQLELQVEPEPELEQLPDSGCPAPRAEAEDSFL
Chain of Receptor-interacting serine/threonine-protein kinase 3 (Q9Y572 whole entry): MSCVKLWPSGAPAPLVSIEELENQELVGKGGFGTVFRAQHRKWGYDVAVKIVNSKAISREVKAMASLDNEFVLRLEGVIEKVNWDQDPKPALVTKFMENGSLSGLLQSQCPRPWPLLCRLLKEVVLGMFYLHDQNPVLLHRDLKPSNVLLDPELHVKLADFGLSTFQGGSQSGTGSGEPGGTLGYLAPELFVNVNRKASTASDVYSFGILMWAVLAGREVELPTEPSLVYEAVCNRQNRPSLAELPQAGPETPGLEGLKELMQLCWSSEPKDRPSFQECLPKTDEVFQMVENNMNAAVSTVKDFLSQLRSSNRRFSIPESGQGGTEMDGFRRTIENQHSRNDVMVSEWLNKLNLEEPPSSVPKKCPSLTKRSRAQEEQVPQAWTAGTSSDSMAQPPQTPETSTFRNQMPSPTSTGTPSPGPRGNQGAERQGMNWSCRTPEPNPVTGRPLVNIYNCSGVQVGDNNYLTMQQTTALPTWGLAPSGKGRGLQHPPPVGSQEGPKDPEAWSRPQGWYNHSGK
Chain of Rho-associated protein kinase 1 (Q13464 whole entry, the tested form may be a part): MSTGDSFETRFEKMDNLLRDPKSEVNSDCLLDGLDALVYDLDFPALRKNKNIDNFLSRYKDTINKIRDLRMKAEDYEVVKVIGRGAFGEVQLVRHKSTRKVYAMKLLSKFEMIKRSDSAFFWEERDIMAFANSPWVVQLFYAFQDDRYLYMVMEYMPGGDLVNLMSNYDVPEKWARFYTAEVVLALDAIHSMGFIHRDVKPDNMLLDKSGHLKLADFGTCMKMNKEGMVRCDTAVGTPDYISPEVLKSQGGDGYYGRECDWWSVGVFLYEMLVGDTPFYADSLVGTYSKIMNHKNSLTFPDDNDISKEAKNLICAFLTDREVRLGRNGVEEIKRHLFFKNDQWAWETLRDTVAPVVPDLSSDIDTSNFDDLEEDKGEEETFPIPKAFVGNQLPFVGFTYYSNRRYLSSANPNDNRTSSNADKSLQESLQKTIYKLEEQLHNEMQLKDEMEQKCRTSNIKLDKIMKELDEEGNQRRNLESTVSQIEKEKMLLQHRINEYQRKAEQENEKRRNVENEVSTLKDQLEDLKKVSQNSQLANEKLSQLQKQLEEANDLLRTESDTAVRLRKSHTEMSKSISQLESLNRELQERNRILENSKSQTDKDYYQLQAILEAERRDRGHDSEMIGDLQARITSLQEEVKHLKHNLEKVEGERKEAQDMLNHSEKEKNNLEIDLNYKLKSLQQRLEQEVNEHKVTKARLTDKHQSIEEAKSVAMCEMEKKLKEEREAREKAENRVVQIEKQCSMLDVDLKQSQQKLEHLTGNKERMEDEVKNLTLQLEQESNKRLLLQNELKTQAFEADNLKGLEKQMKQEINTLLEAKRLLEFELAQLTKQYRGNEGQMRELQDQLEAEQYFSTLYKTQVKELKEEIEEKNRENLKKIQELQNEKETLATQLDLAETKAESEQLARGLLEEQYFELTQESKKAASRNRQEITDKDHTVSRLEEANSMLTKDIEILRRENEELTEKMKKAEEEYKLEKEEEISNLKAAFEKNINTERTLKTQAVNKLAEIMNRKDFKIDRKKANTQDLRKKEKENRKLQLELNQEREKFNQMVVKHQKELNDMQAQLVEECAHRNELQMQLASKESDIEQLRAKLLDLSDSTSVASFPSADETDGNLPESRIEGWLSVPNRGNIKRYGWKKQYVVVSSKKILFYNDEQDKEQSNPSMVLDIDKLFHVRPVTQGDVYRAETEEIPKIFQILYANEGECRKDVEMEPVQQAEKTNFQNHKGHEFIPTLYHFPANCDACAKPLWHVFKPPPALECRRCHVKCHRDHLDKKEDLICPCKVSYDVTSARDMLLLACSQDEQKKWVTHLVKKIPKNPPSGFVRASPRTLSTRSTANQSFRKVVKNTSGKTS
Chain of Ribosomal protein S6 kinase alpha-4 (O75676 whole entry): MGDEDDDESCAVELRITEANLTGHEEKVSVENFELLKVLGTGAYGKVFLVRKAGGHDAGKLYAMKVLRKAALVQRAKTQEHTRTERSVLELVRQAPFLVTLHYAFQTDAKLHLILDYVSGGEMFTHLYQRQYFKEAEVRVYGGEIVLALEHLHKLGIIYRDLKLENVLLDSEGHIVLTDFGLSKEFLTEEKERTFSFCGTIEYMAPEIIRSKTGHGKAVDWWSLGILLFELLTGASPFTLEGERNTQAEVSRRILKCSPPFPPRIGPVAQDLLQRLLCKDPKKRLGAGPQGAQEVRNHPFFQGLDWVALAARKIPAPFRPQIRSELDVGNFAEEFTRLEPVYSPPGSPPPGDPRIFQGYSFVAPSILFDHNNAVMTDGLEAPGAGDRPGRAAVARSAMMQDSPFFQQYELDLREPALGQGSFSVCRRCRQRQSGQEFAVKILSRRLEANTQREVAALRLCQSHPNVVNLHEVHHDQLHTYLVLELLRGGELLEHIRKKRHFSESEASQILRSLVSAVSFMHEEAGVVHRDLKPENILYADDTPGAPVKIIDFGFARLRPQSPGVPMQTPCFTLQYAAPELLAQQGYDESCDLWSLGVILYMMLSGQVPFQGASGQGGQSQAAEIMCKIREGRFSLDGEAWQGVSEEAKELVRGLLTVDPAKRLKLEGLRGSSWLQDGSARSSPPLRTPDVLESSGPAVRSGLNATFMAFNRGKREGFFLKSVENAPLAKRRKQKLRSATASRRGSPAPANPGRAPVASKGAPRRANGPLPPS
Chain of Glycogen synthase kinase-3 alpha (P49840 whole entry): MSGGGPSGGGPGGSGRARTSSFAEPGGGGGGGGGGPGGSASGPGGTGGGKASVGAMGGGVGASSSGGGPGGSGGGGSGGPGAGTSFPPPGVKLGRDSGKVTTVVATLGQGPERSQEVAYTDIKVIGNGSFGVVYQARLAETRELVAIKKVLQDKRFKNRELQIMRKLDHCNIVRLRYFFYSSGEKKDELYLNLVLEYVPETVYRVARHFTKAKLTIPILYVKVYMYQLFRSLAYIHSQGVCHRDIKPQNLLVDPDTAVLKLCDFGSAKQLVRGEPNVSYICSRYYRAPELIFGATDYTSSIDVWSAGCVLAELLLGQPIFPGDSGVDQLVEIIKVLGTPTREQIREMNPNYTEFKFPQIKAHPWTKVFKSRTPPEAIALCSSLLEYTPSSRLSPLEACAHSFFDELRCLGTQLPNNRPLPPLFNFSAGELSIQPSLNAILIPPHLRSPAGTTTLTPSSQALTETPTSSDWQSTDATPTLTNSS

COC(=O)N[C@@H](C)CNc1nccc(-c2cn(C(C)C)nc2-c2cc(Cl)cc(NS(C)(=O)=O)c2F)n1 [ENCORAFENIB]
inactive: [2] > 30 µM | [3] > 30 µM | [4] > 30 µM | [5] > 30 µM | Glycine--tRNA ligase > 30 µM | Septin-9 > 30 µM
active: [1] 5.26 µM | [6] 0.967 µM

COCCNCc1ccc(-c2cc3nccc(Oc4ccc(NC(=S)NC(=O)Cc5ccc(F)cc5)cc4F)c3s2)nc1 [GLESATINIB]
active: [3] 2.78 µM
inactive: [1] > 30 µM | [2] > 30 µM | [4] > 30 µM | [5] > 30 µM | Glycine--tRNA ligase > 30 µM | Septin-9 > 30 µM | [6] > 30 µM

CCS(=O)(=O)N1CC(CC#N)(n2cc(-c3ncnc4[nH]ccc34)cn2)C1 [BARICITINIB]
active: [4] 0.482 µM
0.084 µM: Septin-9
inactive: [1] > 30 µM | [2] > 30 µM | [3] > 30 µM | [5] > 30 µM | Glycine--tRNA ligase > 30 µM | [6] > 30 µM

Cc1c(F)cc(C(=O)NC2CC2)cc1-c1ccc(C(=O)NCC(C)(C)C)cn1 [LOSMAPIMOD]
inactive: [1] > 30 µM | [2] > 30 µM | [3] > 30 µM | [4] > 30 µM | [5] > 30 µM | Glycine--tRNA ligase > 30 µM | Septin-9 > 30 µM | [6] > 30 µM

CO[C@H]1C[C@@H]2CC[C@@H](C)[C@@](O)(O2)C(=O)C(=O)N2CCCC[C@H]2C(=O)O[C@H]([C@H](C)C[C@@H]2CC[C@@H](OCCO)[C@H](OC)C2)CC(=O)[C@H](C)/C=C(\C)[C@@H](O)[C@@H](OC)C(=O)[C@H](C)C[C@H](C)/C=C/C=C/C=C/1C [EVEROLIMUS]
inactive: [1] > 30 µM | [2] > 30 µM | [3] > 30 µM | [4] > 30 µM | [5] > 30 µM | Glycine--tRNA ligase > 30 µM | Septin-9 > 30 µM | [6] > 30 µM

CCN1CCN(Cc2ccc(-c3cc4c(N[C@H](C)c5ccccc5)ncnc4[nH]3)cc2)CC1 [AEE-788]
inactive: [1] > 30 µM | [2] > 30 µM | [4] > 30 µM | [5] > 30 µM | Glycine--tRNA ligase > 30 µM | Septin-9 > 30 µM | [6] > 30 µM
active: [3] 9.38 µM

CC(=O)Nc1cccc(-n2c(=O)n(C3CC3)c(=O)c3c(Nc4ccc(I)cc4F)n(C)c(=O)c(C)c32)c1 [TRAMETINIB]
inactive: [1] > 30 µM | [2] > 30 µM | [3] > 30 µM | [4] > 30 µM | [5] > 30 µM | Glycine--tRNA ligase > 30 µM | Septin-9 > 30 µM | [6] > 30 µM

O=C(O)[C@]1(Cc2cccc(Nc3nccs3)n2)CC[C@@H](Oc2cccc(Cl)c2F)CC1 [MK-5108]
inactive: [1] > 30 µM | [2] > 30 µM | [3] > 30 µM | [4] > 30 µM | [5] > 30 µM | Glycine--tRNA ligase > 30 µM | Septin-9 > 30 µM | [6] > 30 µM

C1=C/COCc2cc(ccc2OCCN2CCCC2)Nc2nccc(n2)-c2cccc(c2)COC/1 [PACRITINIB]
active: [1] 5.19 µM | [3] 2.67 µM | [5] 0.033 µM
inactive: [2] > 30 µM | [4] > 30 µM | Glycine--tRNA ligase > 30 µM | Septin-9 > 30 µM | [6] > 30 µM

N[C@@H]1CCCN(c2c(/C=C3\SC(=O)NC3=O)cccc2-c2ccccc2)C1
inactive: [1] > 30 µM | [2] > 30 µM | [3] > 30 µM | [4] > 30 µM | [5] > 30 µM | Glycine--tRNA ligase > 30 µM | Septin-9 > 30 µM | [6] > 30 µM

Cc1ccc(NC(=O)c2ccc(CN3CC[C@H](N(C)C)C3)c(C(F)(F)F)c2)cc1Nc1nccc(-c2cncnc2)n1 [BAFETINIB]
inactive: [1] > 30 µM | [2] > 30 µM | [4] > 30 µM | [5] > 30 µM | Glycine--tRNA ligase > 30 µM | Septin-9 > 30 µM
active: [3] 3.13 µM | [6] 0.506 µM

O=C(c1ccc(F)c(F)c1Nc1ccc(I)cc1F)N1CC(O)([C@@H]2CCCCN2)C1 [COBIMETINIB]
inactive: [1] > 30 µM | [2] > 30 µM | [3] > 30 µM | [4] > 30 µM | [5] > 30 µM | Glycine--tRNA ligase > 30 µM | Septin-9 > 30 µM | [6] > 30 µM

C[C@@H]1CN(Cc2ccc(F)cc2)[C@@H](C)CN1C(=O)c1cc2c(C(=O)C(=O)N(C)C)cn(C)c2cc1Cl [TALMAPIMOD]
inactive: [1] > 30 µM | [2] > 30 µM | [3] > 30 µM | [4] > 30 µM | [5] > 30 µM | Glycine--tRNA ligase > 30 µM | Septin-9 > 30 µM | [6] > 30 µM

Cc1cc(-c2cc(O)ccc2Cl)cc2nnc(Nc3ccc(OCCN4CCCC4)cc3)nc12
active: [6] 0.003 µM
inactive: [1] > 30 µM | [2] > 30 µM | [3] > 30 µM | [4] > 30 µM | [5] > 30 µM | Glycine--tRNA ligase > 30 µM | Septin-9 > 30 µM

Cc1cc([C@@H](C)Nc2ccccc2C(=O)O)c2nc(N3CCOCC3)cc(=O)n2c1 [AZD-6482]
inactive: [1] > 30 µM | [2] > 30 µM | [3] > 30 µM | [4] > 30 µM | [5] > 30 µM | Glycine--tRNA ligase > 30 µM | Septin-9 > 30 µM | [6] > 30 µM
